This is an account of results in PubChem BioAssay (NCI).

Some test systems named below: UACC-257 melanoma; ACHN renal; HS 578T breast; A549 NSCLC; OVCAR-4 ovarian; RPMI-8226 leukemia; EKVX NSCLC; SK-MEL-5 melanoma; MDA-MB-231 breast; OVCAR-8 ovarian; UO-31 renal; KM12 colon; M14 melanoma; DU-145 prostate; HCT-116 colon; A498 renal; RXF 393 renal; SK-OV-3 ovarian.
Holding throughout (assay): growth of human tumour cells (NCI), 48 h

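These data come from cells grown in 96-well plates and exposed to compound for 48 hours at five concentrations. TGI: total growth inhibition.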 Some results are limits rather than exact numbers.

Regarding `COc1ccc(NS(=O)c2ccccc2OC)cc1` (configuration not stated), the TGI with UACC-257 melanoma is more than 100 µM; with ACHN renal, more than 100 µM; in the test with HS 578T breast it was 84.5 µM; with A549 NSCLC it was 79.8 µM; in the test on OVCAR-4 ovarian it was more than 100 µM; in the test with RPMI-8226 leukemia, more than 100 µM. Besides, the TGI in the test on EKVX NSCLC is more than 100 µM; with SK-MEL-5 melanoma, 54.4 µM; with MDA-MB-231 breast, more than 100 µM; with OVCAR-8 ovarian, more than 100 µM; in the test with UO-31 renal it was 28.2 µM; with KM12 colon, 18.1 µM. Besides, the TGI with M14 melanoma, in the test on DU-145 prostate and with HCT-116 colon was more than 100 µM throughout.

On to `C/C(CC(=O)NC1=CC=C(NC(=O)C/C(C)=N\Nc2ccccc2)CC1)=N/Nc1ccccc1`, for which the TGI in the test with A498 renal, in the test with UACC-257 melanoma, in the test with ACHN renal, in the test on RXF 393 renal, in the test on A549 NSCLC and in the test on SK-OV-3 ovarian was more than 100 µM throughout. The TGI in the test on OVCAR-4 ovarian, in the test on RPMI-8226 leukemia, in the test on EKVX NSCLC, with SK-MEL-5 melanoma, in the test with OVCAR-8 ovarian and in the test on UO-31 renal was more than 100 µM in each case. Moreover, the TGI with KM12 colon, in the test with M14 melanoma and in the test on HCT-116 colon was more than 100 µM each time.

As to `CCN(CC)Cc1cc(Nc2c3ccccc3nc3c4ccccc4n(C)c23)ccc1O`, the TGI in the test with A498 renal was determined as 27.8 µM; in the test with UACC-257 melanoma it was 23.3 µM; with ACHN renal it was 24 µM; with RXF 393 renal, 25.5 µM; with A549 NSCLC, 28.2 µM; in the test with SK-OV-3 ovarian, 31.6 µM. Moreover, the TGI stood at 27.4 µM in the test with OVCAR-4 ovarian; 15.3 µM in the test with RPMI-8226 leukemia; 29.7 µM in the test with EKVX NSCLC; 6.6 µM in the test with SK-MEL-5 melanoma; 15.6 µM in the test on OVCAR-8 ovarian; 22.8 µM with UO-31 renal. For the same compound, the TGI in the test on KM12 colon amounted to 23.9 µM; in the test on M14 melanoma, 3.68 µM; with HCT-116 colon, 19.5 µM.

On to `CCCCCCCCCCCCn1[nH]c(C)c(C(=S)SCCCCCCCC)c1=O`, for which the TGI in the test with A498 renal is more than 100 µM; with UACC-257 melanoma, more than 100 µM; in the test on ACHN renal, more than 100 µM; with RXF 393 renal, more than 80.9 µM; in the test on A549 NSCLC, more than 100 µM; with SK-OV-3 ovarian, more than 100 µM. Further, the TGI in the test with OVCAR-4 ovarian is more than 100 µM; in the test with RPMI-8226 leukemia it was more than 35.7 µM; in the test with EKVX NSCLC, more than 100 µM; in the test on SK-MEL-5 melanoma, more than 100 µM; in the test with OVCAR-8 ovarian, more than 88.1 µM; in the test with UO-31 renal, more than 100 µM. For the same compound, the TGI in the test on KM12 colon, in the test with M14 melanoma and in the test on HCT-116 colon was more than 100 µM throughout.

Take `Cc1n[nH]c(=O)n1/N=C/c1ccncc1`: the TGI in the test with A498 renal, in the test on UACC-257 melanoma, with ACHN renal, in the test on HS 578T breast, with RXF 393 renal and in the test on A549 NSCLC was more than 100 µM throughout. In addition, the TGI in the test on SK-OV-3 ovarian, in the test on OVCAR-4 ovarian, in the test with EKVX NSCLC, with SK-MEL-5 melanoma, with MDA-MB-231 breast and in the test with OVCAR-8 ovarian was more than 100 µM in each case. Besides, the TGI in the test with UO-31 renal, in the test with KM12 colon, in the test with M14 melanoma, in the test with DU-145 prostate and with HCT-116 colon was more than 100 µM throughout.

With `Cc1cc(N(CCC#N)CCC#N)ccc1N=Nc1cccc(Cl)c1`, the TGI with A498 renal, in the test on UACC-257 melanoma, in the test on ACHN renal, in the test with RXF 393 renal, with A549 NSCLC and in the test with SK-OV-3 ovarian was more than 100 µM in each case. Moreover, the TGI with OVCAR-4 ovarian, with RPMI-8226 leukemia, in the test with EKVX NSCLC, in the test with SK-MEL-5 melanoma, with OVCAR-8 ovarian and in the test with UO-31 renal was more than 100 µM each time. The TGI in the test on KM12 colon, with M14 melanoma and in the test on HCT-116 colon was more than 100 µM throughout.

Consider `COC(=O)C1N=CSCC1(C)O` (configuration not stated), for which the TGI in the test on A498 renal, in the test on UACC-257 melanoma, with ACHN renal, in the test with RXF 393 renal, in the test on A549 NSCLC and in the test on SK-OV-3 ovarian was more than 100 µM each time. Also, the TGI in the test with OVCAR-4 ovarian, in the test with RPMI-8226 leukemia, in the test on EKVX NSCLC, in the test on SK-MEL-5 melanoma, in the test on OVCAR-8 ovarian and with UO-31 renal was more than 100 µM throughout. For the same compound, the TGI with KM12 colon, in the test with M14 melanoma and with HCT-116 colon was more than 100 µM throughout.
